Results from patent publication US11427549B2, “Pyrimidinyloxy benzo-fused compounds as herbicides” (FMC Corporation, priority 2017, dated 2022).

Tests used:
[1] = test system: barnyardgrass (Echinochloa crus-galli); assay: Test B flooded paddy test, barnyardgrass; settings: Echinochloa crus-galli, read-out: Plant response rating, Barnyardgrass (0 to 100 scale, 0 is no effect, 100 is complete control)
[2] = test system: galium (catchweed bedstraw, Galium aparine); assay: Test A postemergence, galium; assay type: in vivo; settings: Galium, post-emergence, 240 h, 0 to 100 scale (0 no effect, 100 complete control), read-out: Plant response rating, Galium; for pest or weed control at 125 g/ha: 125 g ai/ha
[3] = test system: pigweed (Amaranthus retroflexus); assay: Test A preemergence, pigweed; assay type: in vivo; settings: Amaranthus retroflexus, pre-emergence, 240 h, 0 to 100 scale (0 no effect, 100 complete control), read-out: Plant response rating, Pigweed; for pest or weed control at 125 g/ha: 125 g ai/ha
corn (Zea mays) = assay: Test A postemergence, corn; assay type: in vivo; settings: Zea mays, post-emergence, 240 h, 0 to 100 scale (0 no effect, 100 complete control); for Corn plant response rating (crop injury, 0 = no effect, 100 = complete kill) at 125 g/ha: 125 g ai/ha
[4] = test system: barnyardgrass (Echinochloa crus-galli); assay: Test A postemergence, barnyardgrass; assay type: in vivo; settings: Echinochloa crus-galli, post-emergence, 240 h, 0 to 100 scale (0 no effect, 100 complete control), read-out: Plant response rating, Barnyardgrass; for pest or weed control at 125 g/ha: 125 g ai/ha
rice (Oryza sativa) = assay: Test B flooded paddy test, rice; settings: Oryza sativa, read-out: Plant response rating, Rice (0 to 100 scale, 0 is no effect, 100 is complete control)
[5] = test system: foxtail, green (green foxtail, Setaria viridis); assay: Test A postemergence, foxtail, green; assay type: in vivo; settings: Setaria, post-emergence, 240 h, 0 to 100 scale (0 no effect, 100 complete control), read-out: Plant response rating, Foxtail, Green; for pest or weed control at 125 g/ha: 125 g ai/ha
[6] = test system: pigweed (Amaranthus retroflexus); assay: Test A postemergence, pigweed; assay type: in vivo; settings: Amaranthus retroflexus, post-emergence, 240 h, 0 to 100 scale (0 no effect, 100 complete control), read-out: Plant response rating, Pigweed; for pest or weed control at 125 g/ha: 125 g ai/ha
[7] = test system: ryegrass, Italian (Italian ryegrass, Lolium multiflorum); assay: Test A postemergence, ryegrass, Italian; assay type: in vivo; settings: Lolium multiflorum, post-emergence, 240 h, 0 to 100 scale (0 no effect, 100 complete control), read-out: Plant response rating, Ryegrass, Italian; for pest or weed control at 125 g/ha: 125 g ai/ha
[8] = test system: wheat (Triticum aestivum); assay: Test A postemergence, wheat; assay type: in vivo; settings: Triticum aestivum, post-emergence, 240 h, 0 to 100 scale (0 no effect, 100 complete control), read-out: Plant response rating, Wheat; for plant injury at 125 g/ha: 125 g ai/ha
[9] = test system: ryegrass, Italian (Italian ryegrass, Lolium multiflorum); assay: Test A preemergence, ryegrass, Italian; assay type: in vivo; settings: Lolium multiflorum, pre-emergence, 240 h, 0 to 100 scale (0 no effect, 100 complete control), read-out: Plant response rating, Ryegrass, Italian; for pest or weed control at 125 g/ha: 125 g ai/ha
[10] = test system: ragweed (common ragweed, Ambrosia elatior); assay: Test A postemergence, ragweed; assay type: in vivo; settings: Ambrosia artemisiifolia, post-emergence, 240 h, 0 to 100 scale (0 no effect, 100 complete control), read-out: Plant response rating, Ragweed; for pest or weed control at 125 g/ha: 125 g ai/ha
[11] = test system: blackgrass (Alopecurus myosuroides); assay: Test A postemergence, blackgrass; assay type: in vivo; settings: Alopecurus myosuroides, post-emergence, 240 h, 0 to 100 scale (0 no effect, 100 complete control), read-out: Plant response rating, Blackgrass; for pest or weed control at 125 g/ha: 125 g ai/ha
kochia (Kochia scoparia) [12] = assay: Test A postemergence, kochia; assay type: in vivo; settings: Bassia scoparia, post-emergence, 240 h, 0 to 100 scale (0 no effect, 100 complete control), read-out: Plant response rating, Kochia; for pest or weed control at 125 g/ha: 125 g ai/ha
[13] = test system: ducksalad (Heteranthera limosa); assay: Test B flooded paddy test, ducksalad; settings: Heteranthera limosa, read-out: Plant response rating, Ducksalad (0 to 100 scale, 0 is no effect, 100 is complete control)
kochia (Kochia scoparia) [14] = assay: Test A preemergence, kochia; assay type: in vivo; settings: Bassia scoparia, pre-emergence, 240 h, 0 to 100 scale (0 no effect, 100 complete control), read-out: Plant response rating, Kochia; for pest or weed control at 125 g/ha: 125 g ai/ha
[15] = test system: barnyardgrass (Echinochloa crus-galli); assay: Test A preemergence, barnyardgrass; assay type: in vivo; settings: Echinochloa crus-galli, pre-emergence, 240 h, 0 to 100 scale (0 no effect, 100 complete control), read-out: Plant response rating, Barnyardgrass; for pest or weed control at 125 g/ha: 125 g ai/ha
[16] = test system: ragweed (common ragweed, Ambrosia elatior); assay: Test A preemergence, ragweed; assay type: in vivo; settings: Ambrosia artemisiifolia, pre-emergence, 240 h, 0 to 100 scale (0 no effect, 100 complete control), read-out: Plant response rating, Ragweed; for pest or weed control at 125 g/ha: 125 g ai/ha

Row | Structure (SMILES) | pest or weed control at 250 g/ha [1] [%] | pest or weed control at 125 g/ha [2] [%] | pest or weed control at 125 g/ha [3] [%] | Corn plant response rating (crop injury, 0 = no effect, 100 = complete kill) at 125 g/ha (corn (Zea mays)) [%] | pest or weed control at 125 g/ha [4] [%] | plant injury at 250 g/ha (rice (Oryza sativa)) [%] | pest or weed control at 125 g/ha [5] [%] | pest or weed control at 125 g/ha [6] [%] | pest or weed control at 125 g/ha [7] [%] | plant injury at 125 g/ha [8] [%] | pest or weed control at 125 g/ha [9] [%] | pest or weed control at 125 g/ha [10] [%] | pest or weed control at 125 g/ha [11] [%] | pest or weed control at 125 g/ha (kochia (Kochia scoparia) [12]) [%] | pest or weed control at 250 g/ha [13] [%] | pest or weed control at 125 g/ha (kochia (Kochia scoparia) [14]) [%] | pest or weed control at 125 g/ha [15] [%] | pest or weed control at 125 g/ha [16] [%] | other results
1 | OC1(CCC(F)(F)F)CCc2cccc(Oc3ncc(Cl)cn3)c21 (stereo not drawn) [Compound 14, 7-[(5-Chloro-2-pyrimidinyl)oxy]-2,3-dihydro-1-(3,3,3-trifluoropropyl)-1H-inden-1-ol] | 0 | 50 | 100 | 10 | 30 | 0 | 0 | 50 | 20 | 30 | 10 | 70 | 40 | 80 | 40 | 50 | 20 | 40 | pest or weed control at 500 g/ha ([2]; 500 g ai/ha): 90%; pest or weed control at 500 g/ha ([3]; 500 g ai/ha): 100%; Corn plant response rating (crop injury, 0 = no effect, 100 = complete kill) at 500 g/ha (corn (Zea mays); 500 g ai/ha): 40%; pest or weed control at 500 g/ha ([4]; 500 g ai/ha): 80%; pest or weed control at 500 g/ha ([5]; 500 g ai/ha): 50%; pest or weed control at 500 g/ha ([6]; 500 g ai/ha): 100%; pest or weed control at 500 g/ha ([7]; 500 g ai/ha): 90%; plant injury at 500 g/ha ([8]; 500 g ai/ha): 60%; pest or weed control at 500 g/ha ([9]; 500 g ai/ha): 60%; pest or weed control at 500 g/ha ([10]; 500 g ai/ha): 90%; pest or weed control at 500 g/ha ([11]; 500 g ai/ha): 90%; pest or weed control at 500 g/ha (kochia (Kochia scoparia) [12]; 500 g ai/ha): 80%; pest or weed control at 500 g/ha (kochia (Kochia scoparia) [14]; 500 g ai/ha): 100%; pest or weed control at 500 g/ha ([15]; 500 g ai/ha): 90%; pest or weed control at 500 g/ha ([16]; 500 g ai/ha): 70%
2 | O=C1O[C@@H](CCCC(F)(F)F)c2c(Oc3ncc(Cl)cn3)cccc21 [Compound 2, (3S)-4-[(5-Chloro-2-pyrimidinyl)oxy]-3-(4,4,4-trifluorobutyl)-1-(3H)-isobenzofuranone] | 0 | 10 | 20 | 10 | 0 | 0 | 10 | 50 | 10 | 0 | 0 | 30 | 0 | 10 | 0 | 0 | 0 | 0 | pest or weed control at 31 g/ha ([2]; 31 g ai/ha): 0%; pest or weed control at 31 g/ha ([3]; 31 g ai/ha): 0%; Corn plant response rating (crop injury, 0 = no effect, 100 = complete kill) at 31 g/ha (corn (Zea mays); 31 g ai/ha): 0%; pest or weed control at 31 g/ha ([4]; 31 g ai/ha): 0%; pest or weed control at 31 g/ha ([5]; 31 g ai/ha): 0%; pest or weed control at 31 g/ha ([6]; 31 g ai/ha): 10%; pest or weed control at 31 g/ha ([7]; 31 g ai/ha): 0%; plant injury at 31 g/ha ([8]; 31 g ai/ha): 0%; pest or weed control at 31 g/ha ([9]; 31 g ai/ha): 0%; pest or weed control at 31 g/ha ([10]; 31 g ai/ha): 0%; pest or weed control at 31 g/ha ([11]; 31 g ai/ha): 0%; pest or weed control at 31 g/ha (kochia (Kochia scoparia) [12]; 31 g ai/ha): 0%; pest or weed control at 31 g/ha (kochia (Kochia scoparia) [14]; 31 g ai/ha): 0%; pest or weed control at 31 g/ha ([15]; 31 g ai/ha): 0%; pest or weed control at 31 g/ha ([16]; 31 g ai/ha): 0%
